Measured values published in PubChem BioAssay AID1963974 (Molecular Pharmacology Branch, DTP, NCI, 2024).
Values joined by “and” are separate entries in the source; they are usually repeats but may differ in a detail not shown here. Identical values can stand only once.

System: 648629-189-R-J1-PDC spheroids with HUVEC/MSC, viability
Assay: Anticancer human tumor 648629-189-R-J1-PDC patient-derived bladder carcinoma cell line growth inhibition [PI3K]
Conditions: for viability, T/C: stronger effect = lower value
Method in brief: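 Stroma-containing spheroids: tumor line, pooled-donor HUVEC, hMSC. Treatments: targeted agents with PI3K inhibitors. Dosing: clinically relevant, half-log spacing, 10 microM ceiling without known Cmax. Read-out: cell viability.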

[1] = curve of first compound, second compound 0.00316 µM
[2] = curve of first compound, second compound 0.01 µM
[3] = curve of first compound, second compound 0.0316 µM
[4] = curve of first compound, second compound 0.1 µM
[5] = curve of first compound, second compound 0.316 µM
[6] = curve of first compound, second compound 1 µM
[7] = second compound 0.00316 µM, first compound 0.0316 µM
[8] = second compound 0.00316 µM, first compound 0.1 µM
[9] = second compound 0.00316 µM, first compound 0.316 µM
[10] = second compound 0.00316 µM, first compound 1 µM
[11] = second compound 0.00316 µM, first compound 3.16 µM
[12] = second compound 0.00316 µM, first compound 10 µM
[13] = second compound 0.01 µM, first compound 0.0316 µM
[14] = second compound 0.01 µM, first compound 0.1 µM
[15] = second compound 0.01 µM, first compound 0.316 µM
[16] = second compound 0.01 µM, first compound 1 µM
[17] = second compound 0.01 µM, first compound 3.16 µM
[18] = second compound 0.01 µM, first compound 10 µM
[19] = second compound 0.0316 µM, first compound 0.0316 µM
[20] = second compound 0.0316 µM, first compound 0.1 µM
[21] = second compound 0.0316 µM, first compound 0.316 µM
[22] = second compound 0.0316 µM, first compound 1 µM
[23] = second compound 0.0316 µM, first compound 3.16 µM
[24] = second compound 0.0316 µM, first compound 10 µM
[25] = second compound 0.1 µM, first compound 0.0316 µM
[26] = second compound 0.1 µM, first compound 0.1 µM
[27] = second compound 0.1 µM, first compound 0.316 µM
[28] = second compound 0.1 µM, first compound 1 µM
[29] = second compound 0.1 µM, first compound 3.16 µM
[30] = second compound 0.1 µM, first compound 10 µM
[31] = second compound 0.316 µM, first compound 0.0316 µM
[32] = second compound 0.316 µM, first compound 0.1 µM
[33] = second compound 0.316 µM, first compound 0.316 µM
[34] = second compound 0.316 µM, first compound 1 µM
[35] = second compound 0.316 µM, first compound 3.16 µM
[36] = second compound 0.316 µM, first compound 10 µM
[37] = second compound 1 µM, first compound 0.0316 µM
[38] = second compound 1 µM, first compound 0.1 µM
[39] = second compound 1 µM, first compound 0.316 µM
[40] = second compound 1 µM, first compound 1 µM
[41] = second compound 1 µM, first compound 3.16 µM
[42] = second compound 1 µM, first compound 10 µM
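Further: spheroids exposed to agents for seven days before reading.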
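Wherever viability, T/C is given: percent of vehicle control luminescence where 100% = DMSO treated spheroids.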

## CC(C)NCC(C(=O)N1CCN(c2ncnc3c2C(C)CC3O)CC1)c1ccc(Cl)cc1 (stereo not drawn) + CC(Nc1ccc2c(c1)OCCn1cc(N3C(=O)OCC3C(F)F)nc1-2)C(N)=O
[1]
  IC50: 1.28 µM
[2]
  IC50: 1.01 µM
[3]
  IC50: 0.87 µM
[4]
  IC50: 1.15 µM
[5]
  IC50: 0.645 µM
[6]
  IC50: 0.437 µM
[7]
  viability, T/C: 110%
[8]
  viability, T/C: 97.4%
[9]
  viability, T/C: 91.8%
[10]
  viability, T/C: 54.9%
[11]
  viability, T/C: 27.3%
[12]
  viability, T/C: 13.5%
[13]
  viability, T/C: 95.5%
[14]
  viability, T/C: 105%
[15]
  viability, T/C: 81%
[16]
  viability, T/C: 50.2%
[17]
  viability, T/C: 26.8%
[18]
  viability, T/C: 16.2%
[19]
  viability, T/C: 90.1%
[20]
  viability, T/C: 99.3%
[21]
  viability, T/C: 77.7%
[22]
  viability, T/C: 44.5%
[23]
  viability, T/C: 27.1%
[24]
  viability, T/C: 14%
[25]
  viability, T/C: 82.7%
[26]
  viability, T/C: 80.7%
[27]
  viability, T/C: 78.2%
[28]
  viability, T/C: 52.4%
[29]
  viability, T/C: 25.3%
[30]
  viability, T/C: 13.6%
[31]
  viability, T/C: 83.1%
[32]
  viability, T/C: 75.6%
[33]
  viability, T/C: 63.8%
[34]
  viability, T/C: 41.3%
[35]
  viability, T/C: 24.6%
[36]
  viability, T/C: 14.2%
[37]
  viability, T/C: 65.2%
[38]
  viability, T/C: 67.8%
[39]
  viability, T/C: 56.6%
[40]
  viability, T/C: 32.2%
[41]
  viability, T/C: 19%
[42]
  viability, T/C: 12.6%

## CC(C)n1nc(-c2ccc3oc(N)nc3c2)c2c(N)ncnc21 + Cc1nc(NC(=O)N2CCCC2C(N)=O)sc1-c1ccnc(C(C)(C)C(F)(F)F)c1
[3]
  IC50: 0.0586 µM
[4]
  IC50: 0.0567 µM
[5]
  IC50: 0.0527 µM
[6]
  IC50: 0.0333 µM
Curve of first compound, second compound 3.16 µM
  IC50: 0.011 µM
Curve of first compound, second compound 10 µM
  IC50: < 0.000316 µM
Second compound 0.0316 µM, first compound 0.000316 µM
  viability, T/C: 111%
Second compound 0.0316 µM, first compound 0.001 µM
  viability, T/C: 95.1%
Second compound 0.0316 µM, first compound 0.00316 µM
  viability, T/C: 109%
Second compound 0.0316 µM, first compound 0.01 µM
  viability, T/C: 97.5%
[19]
  viability, T/C: 70.2%
[20]
  viability, T/C: 32.6%
Second compound 0.1 µM, first compound 0.000316 µM
  viability, T/C: 102%
Second compound 0.1 µM, first compound 0.001 µM
  viability, T/C: 94.9%
Second compound 0.1 µM, first compound 0.00316 µM
  viability, T/C: 91.7%
Second compound 0.1 µM, first compound 0.01 µM
  viability, T/C: 84.6%
[25]
  viability, T/C: 68%
[26]
  viability, T/C: 32.8%
Second compound 0.316 µM, first compound 0.000316 µM
  viability, T/C: 87.3%
Second compound 0.316 µM, first compound 0.001 µM
  viability, T/C: 83.5%
Second compound 0.316 µM, first compound 0.00316 µM
  viability, T/C: 83.5%
Second compound 0.316 µM, first compound 0.01 µM
  viability, T/C: 82%
[31]
  viability, T/C: 66.1%
[32]
  viability, T/C: 29.1%
Second compound 1 µM, first compound 0.000316 µM
  viability, T/C: 80.9%
Second compound 1 µM, first compound 0.001 µM
  viability, T/C: 85.2%
Second compound 1 µM, first compound 0.00316 µM
  viability, T/C: 74.2%
Second compound 1 µM, first compound 0.01 µM
  viability, T/C: 64.5%
[37]
  viability, T/C: 53.9%
[38]
  viability, T/C: 23.2%
Second compound 3.16 µM, first compound 0.000316 µM
  viability, T/C: 63.9%
Second compound 3.16 µM, first compound 0.001 µM
  viability, T/C: 54.8%
Second compound 3.16 µM, first compound 0.00316 µM
  viability, T/C: 60.5%
Second compound 3.16 µM, first compound 0.01 µM
  viability, T/C: 48.6%
Second compound 3.16 µM, first compound 0.0316 µM
  viability, T/C: 40.7%
Second compound 3.16 µM, first compound 0.1 µM
  viability, T/C: 19.1%
Second compound 10 µM, first compound 0.000316 µM
  viability, T/C: 41.4%
Second compound 10 µM, first compound 0.001 µM
  viability, T/C: 37.5%
Second compound 10 µM, first compound 0.00316 µM
  viability, T/C: 37.5%
Second compound 10 µM, first compound 0.01 µM
  viability, T/C: 33.6%
Second compound 10 µM, first compound 0.0316 µM
  viability, T/C: 27.7%
Second compound 10 µM, first compound 0.1 µM
  viability, T/C: 9.34%

## CC1(C)CCC(Nc2ncc(C(F)(F)F)c(-c3c[nH]c4c(P(C)(C)=O)c(C#N)ccc34)n2)CN1 (stereo not drawn)
Compound 0.0316 µM
  viability, T/C: 30.3% [middle of 4 runs]
Compound 0.1 µM
  viability, T/C: 27.1% [middle of 4 runs]
Compound 0.316 µM
  viability, T/C: 32.2% [middle of 4 runs]
Compound 1 µM
  viability, T/C: 36.1% [middle of 4 runs]
Compound 3.16 µM
  viability, T/C: 39.7% (2×) and 40.8% and 38.2%
Compound 10 µM
  viability, T/C: 5.52% [middle of 4 runs]
Curve of compound
  IC50: < 0.0316 µM

## CCCS(=O)(=O)Nc1ccc(F)c(C(=O)c2c[nH]c3ncc(-c4ccc(Cl)cc4)cc23)c1F + COc1c(OCCCN2CCOCC2)ccc2c3n(c(=NC(=O)c4cnc(N)nc4)nc12)CCN3
[1]
  IC50: 5.39 µM
[2]
  IC50: 4.98 µM
[3]
  IC50: 4.21 µM
[4]
  IC50: 1.76 µM
[5]
  IC50: < 0.0316 µM
[6]
  IC50: < 0.0316 µM
[7]
  viability, T/C: 117%
[8]
  viability, T/C: 96.9%
[9]
  viability, T/C: 92.4%
[10]
  viability, T/C: 100%
[11]
  viability, T/C: 92.7%
[12]
  viability, T/C: 0.51%
[13]
  viability, T/C: 89.8%
[14]
  viability, T/C: 87.2%
[15]
  viability, T/C: 100%
[16]
  viability, T/C: 96.4%
[17]
  viability, T/C: 82.5%
[18]
  viability, T/C: 0.3%
[19]
  viability, T/C: 85.8%
[20]
  viability, T/C: 85.3%
[21]
  viability, T/C: 87.8%
[22]
  viability, T/C: 82.5%
[23]
  viability, T/C: 66.4%
[24]
  viability, T/C: 0.81%
[25]
  viability, T/C: 55.4%
[26]
  viability, T/C: 62.3%
[27]
  viability, T/C: 54%
[28]
  viability, T/C: 60.4%
[29]
  viability, T/C: 42.1%
[30]
  viability, T/C: 1.55%
[31]
  viability, T/C: 22.4%
[32]
  viability, T/C: 19.5%
[33]
  viability, T/C: 18.3%
[34]
  viability, T/C: 21.9%
[35]
  viability, T/C: 16%
[36]
  viability, T/C: 2.22%
[37]
  viability, T/C: 4.16%
[38]
  viability, T/C: 3.42%
[39]
  viability, T/C: 3.84%
[40]
  viability, T/C: 3.92%
[41]
  viability, T/C: 3.43%
[42]
  viability, T/C: 0.43%
